According to US20260294946A1, “METHOD TO REDUCE FEED CONVERSION RATIO IN A FARMED ANIMAL” (Inbiose N.V., priority 2023, published 2026):

Tests used:
Format in all cases: in vivo
[1] = Feed conversion ratio of a farm animal (general statement); settings: administered to a farm animal
[2] = test system: Faecalibacterium prausnitzii; assay: Fecal samples of piglets, 16S rRNA sequencing
Experimental: (§1) On d22, from one piglet per pen (piglet with median weight at weaning) a fresh feces sample was collected and stored at −80° C. Total fecal DNA of 16 selected piglets (1 per pen) were extracted from 200 mg feces. ZymoBIOMICS™ DNA miniprep kit (Zymo Research) in combination with a FASTPREP® 24 device was used to extract and purify the microbial DNA as instructed by the manufacturer. Purified total DNA were eluted in 100 μl and were quickly checked for the concentration and quality using Nanodrop (Implen NANOPHOTOMETER®) before storage at −20° C.
(§2) Total DNA were submitted to Eurofins (GATC, Germany) to perform 16S rRNA sequencing using their INVIEW microbiome high specificity package. Briefly, total DNA were first amplified the hyper-variable regions 16S and integrated the barcodes through PCR. The PCR products were purified, then ligated with adapter for library preparation. The sequencing was done using PacBio sequencing technology, guaranteed for 25000 reads, mean read length […].
(§3) Amplicon analysis was performed using Mothur pipeline (mothur.org). Processing of the raw sequencing data was done according to the Mothur standard operating procedure (mothur.org/wiki/MiSeq_SOP). Alignment was accomplished using DAIRYdb 16S rRNA gene database (GitHub—marcomeola/DAIRYdb). Sequences were classified and any sequences classified as Chloroplast, Mitochondria, unknown, Archaea, or Eukaryota were removed from the data set. Preclustering of the sequences and removal of chimeric sequences using a Mothur-formatted version of the Ribosomal Database Project (RDP) training set and uchime, based on the Mothur protocol. Sequences were classified into Operational Taxonomic Units (OTUs) of ≥97% sequence identity. Singleton and doubleton reads were removed.
(§4) Data statistics of 16S data and figure plotting were performed in RStudio (rstudio.com/). Microbiome data was normalized in relative abundance or cpm (counts per million). The treatment effect of 2′FL in the microbiome abundance data was evaluated on normalized relative abundance (in %) using Mann-Whitney U test.

Prevotella Sp. RS2 = assay: Fecal samples of piglets, 16S rRNA sequencing
Experimental: as §1, §2, §3, §4

Lactobacillus mucosae = assay: Fecal samples of piglets, 16S rRNA sequencing
Experimental: as §1, §2, §3, §4

Blautia obeum = assay: Fecal samples of piglets, 16S rRNA sequencing
Experimental: as §1, §2, §3, §4

[3] = Trial in piglets: body weight, growth, feed intake and feed conversion (pre-weaning, 22 days)
Experimental: The in vivo experiment was carried out at the commercial pig farm “Degroote Luc” (Bissegem, Belgium).
The experimental design had two treatments: • “Ti” serves as control, i.e., a placebo (water) was drenched during the first 4 days of life, and subsequently a commercial milk replacer as a liquid and creep feed was offered until weaning, • “T2,” a […] solution of 2′FL (it is referred to Example 1) in water was drenched during the first 4 days of life, and subsequently a commercial milk replacer supplemented with 2′FL (warm water was added to 250 g of milk powder to reach 25.000 (w/v)) and creep feed supplemented with 2′FL (10% w/w 2′FL) was offered until weaning. The composition of milk replacer and creep feed are detailed in Table 4.
Within 6 hours after birth of all piglets within a litter, piglets were tagged, weighed and ranked according to live weight. This was d0 of the study. Then, the first drenching was given, i.e., the heaviest piglet in the pen receives Ti, the next piglet T2 and so forth, until 12 piglets of that litter were drenched. In the next litter, the order of treatment application was alternated. This practice was done in 16 litters, and drenching was repeated on d1, d2 and d3. At the d4, […] were allocated to 16 pens with 6 piglets each, in the nursery unit. Ti was applied in 8 pens, and T2 was offered in 8 remaining pens. Piglets were allocated to pens according to litter of origin (from each of the 16 litters; 6 vital, normal to heavy weight piglets, body weight ≥1.7 kg, were taken and half of the piglets were allocated to a pen from T1—those receiving T1 in the first 3 days of life, and others to a pen from T2—those receiving T2 in the first 3 days of life), and to body weight and sex. Piglets were offered the liquid milk replacer through a cup connected to a mixing-tubing system and had free access to milk at all times. Milk intake was accurately measured at pen level. From d14 on, in addition, piglets were offered a creep feed (solid feed in feeder pan). Piglets were weighed at d0, d4, d14 and d22 (day of weaning).
Data was collected with respect to piglet performance (body weight, average daily gain (ADG), average daily feed intake and milk replacer for periods d0-4, d4-14, d14-22, d4-22, d0-22, total creep feed intake for period d14-22 and feed conversion for all periods.
Data were analyzed using appropriate linear mixed model with treatment as fixed effect (T1 vs. T2) and litter as random effect, and body weight at d0 as co-variate if P<0.05. Piglet was used as experimental unit for growth data, whereas pen was the experimental unit for other records.

**Q.** Which results are given for 2′-fucosyllactose [2′FL]?
**A.** decrease of the feed conversion ratio [1]: strong decrease; effect on abundance ([2]; d 22): promoted; Relative abundance in fecal samples ([2]; weaning day (d 22), P=0.00965 vs control): 0.278%; effect on abundance (Prevotella Sp. RS2; d 22): inhibited; Relative abundance in fecal samples (Prevotella Sp. RS2; weaning day (d 22), P=0.0129 vs control): 0.1093%; effect on abundance (Lactobacillus mucosae; d 22): promoted; Relative abundance in fecal samples (Lactobacillus mucosae; weaning day (d 22), P=0.0263 vs control): 0.1586%; effect on abundance (Blautia obeum; d 22): promoted; Relative abundance in fecal samples (Blautia obeum; weaning day (d 22), P=0.0428 vs control): 0.1672%; body weight, ADG, milk intake, and creep feed intake versus placebo ([3]; 22 days of pre-weaning phase): no significant differences; FCR versus placebo ([3]; 22 days of pre-weaning phase, trend): there is a trend that the FCR is reduced; Body weight ([3]; d 0, P=0.839 vs placebo): 1536 g; ADG (average daily gain) ([3]; d 0-4, P=0.363 vs placebo): 139 g/day; ADG (average daily gain) ([3]; d 0-22, P=0.297 vs placebo): 185 g/day; Body weight ([3]; d 4, P=0.369 vs placebo): 2087 g; ADFI milk (average daily feed intake) ([3]; d 4-14, P=0.555 vs placebo): 149 g DM/d; FCR (milk) ([3]; d 4-14, P=0.835 vs placebo): 1.03 g milk DM/g; ADG (average daily gain) ([3]; d 4-14, P=0.950 vs placebo): 150 g/day; ADG (average daily gain) ([3]; d 4-22, P=0.253 vs placebo): 196 g/day; FCR (milk) ([3]; d 4-22, P=0.268 vs placebo): 1.04 g milk DM/g; ADFI milk (average daily feed intake) ([3]; d 4-22, P=0.834 vs placebo): 202 g DM/d; Body weight ([3]; d 14, P=0.946 vs placebo): 3524 g; FCR (milk + creep feed) ([3]; d 14-22, P=0.038 vs placebo): 1.18 (g milk DM + g creep feed DM)/; FCR (milk) ([3]; d 14-22, P=0.055 vs placebo): 1.09 g milk DM/g; ADG (average daily gain) ([3]; d 14-22, P=0.134 vs placebo): 250 g/day; ADFI creep feed (average daily feed intake) ([3]; d 14-22, P=0.304 vs placebo): 23.8 g DM/d; ADFI milk (average daily feed intake) ([3]; d 14-22, P=0.885 vs placebo): 270 g DM/d; Body weight ([3]; d 22, P=0.306 vs placebo): 5524 g; FCR versus placebo ([3]; day 14 to 22, milk and creep feed (P=0.038)): even lower; FCR versus placebo ([3]; day 14 to 22, milk intake (P=0.055)): lower
